Test results taken from US20110184188A1, “Insecticidal Benzenedicarboxamide Derivative” (priority 2008, published 2011).

System: not listed separately
Assay: logP(acid) by reverse phase (C18) chromatography at pH 2.3
Type: physicochemical
Conditions: pH 2.3

Row | chromatographic logP | Compound
1 | 2.83 | Cc1nc(Cn2nc(C(F)(F)C(F)(F)F)cc2C(F)(F)C(F)(F)F)ccc1N [SYNTHESIS EXAMPLE 81-2]
2 | 2.85 | Cc1nc(Cn2nnc(C(F)(F)F)n2)ccc1[N+](=O)[O-] [SYNTHESIS EXAMPLE 85-1]

Same assay, conditions: pH 2.3; reverse phase (C18) chromatography, pH2.3, 0.1% phosphoric acid / acetonitrile gradient 10-95%; read-out: logP (acid)

Row | Compound | chromatographic logP
3 | Cc1nc(Cn2nnc(C(F)(F)C(F)(F)C(F)(F)F)n2)ccc1[N+](=O)[O-] [SYNTHESIS EXAMPLE 86-1] | 3.78

Same assay, conditions: reverse phase (C18) chromatography at pH 2.3

Row | Compound | logP (acid)
4 | Cc1cc(Cn2nc(C(F)(F)F)cc2C(F)(F)F)ccc1NC(=O)c1c(Cl)ccc(Cl)c1C(=O)N[C@@H](C)CS(C)(=O)=O [11-23] | logP (acid) 3.40
5 | Cc1nc(Cn2nc(C(F)(F)C(F)(F)C(F)(F)F)cc2C(F)(F)F)ccc1NC(=O)c1cccc(Br)c1C(=O)N[C@@H](C)CS(C)(=O)=O [13-139] | logP (acid) 3.56
6 | CSC[C@H](C)NC(=O)c1c(Br)cccc1C(=O)Nc1ccc(Cn2cc(C(F)(F)C(F)(F)F)c(C(F)(F)C(F)(F)F)n2)nc1C [13-134] | logP (acid) 4.35
7 | Cc1nc(Cn2nc(C(F)(F)F)cc2C(F)(F)F)ccc1NC(=O)c1c(Br)ccc(Cl)c1C(=O)N[C@@H](C)CS(C)(=O)=O [11-15] | logP (acid) 3.05
8 | Cc1nc(Cn2cc(C(F)(F)C(F)(F)F)c(C(F)(F)C(F)(F)F)n2)ccc1NC(=O)c1cccc(Cl)c1C(=O)N[C@@H](C)CS(C)(=O)=O [13-110] | logP (acid) 3.46
9 | Cc1nc(Cn2nc(C(F)(F)F)cc2C(F)(F)F)ccc1NC(=O)c1c(Br)ccc(Cl)c1C(=O)N[C@@H](C)C[S+](C)[O-] (stereo partly shown) [11-14] | logP (acid) 2.68

Same assay, conditions: reverse phase (C18) chromatography at pH2.3, 0.1% phosphoric acid aqueous solution / acetonitrile, linear gradient 10-95%

Row | Compound | logP (acid)
10 | CSC[C@H](C)NC(=O)c1c(Cl)cccc1C(=O)Nc1cccc(Cn2cc(C(F)(F)C(F)(F)F)c(C(F)(F)C(F)(F)F)n2)c1C [4-6] | logP (acid) 4.52
11 | CSC[C@H](C)NC(=O)c1c(Cl)cccc1C(=O)Nc1cccc(Cn2nc(C(F)(F)C(F)(F)F)nc2-c2ccc(Cl)cc2)c1C [4-9] | logP (acid) 4.32
12 | CSC[C@H](C)NC(=O)c1c(Cl)cccc1C(=O)Nc1cccc(Cn2nc(C(F)(F)C(F)(F)F)nc2-c2ccc(Cl)nc2)c1C [4-11] | logP (acid) 3.8

Same assay, conditions: reverse phase (C18) chromatography at pH2.3, 0.1% phosphoric acid aqueous solution / acetonitrile, linear gradient 10-95% acetonitrile

Row | logP (acid) | Compound
13 | logP (acid) 3.96 | CSC[C@H](C)NC(=O)c1c(SC)cccc1C(=O)Nc1cc(F)c(Cn2nc(C(F)(F)F)nc2C(F)(F)F)cc1C [7-23]
14 | logP (acid) 4.37 | CSC[C@H](C)NC(=O)c1c(Br)cccc1C(=O)Nc1cc(F)c(Cn2nc(C(F)(F)F)cc2C(F)(F)F)cc1C [7-10]

Same assay, conditions: reverse phase (C18) chromatography column, pH 2.3; reverse phase (C18) chromatography, pH2.3, 0.1% phosphoric acid / acetonitrile gradient 10-95%; read-out: logP (acid)

Row | chromatographic logP | Compound
15 | 1.49 | Cc1cc(COS(C)(=O)=O)ncc1[N+](=O)[O-] [SYNTHESIS EXAMPLE 68-1]

Same assay, conditions: reverse phase (C18) chromatography, pH 2.3

Row | logP (acid) | Compound
16 | logP (acid) 3.49 | CSC[C@H](C)NC(=O)c1c(SC)cccc1C(=O)Nc1ccc(Cn2nc(C(F)(F)C(F)F)nc2C(F)(F)F)nc1C [14-397]
17 | logP (acid) 2.56 | CSC[C@H](C)NC(=O)c1c(Cl)cccc1C(=O)Nc1ccc(Cn2cc(C(=O)N(C)C)c(C(F)(F)F)n2)cc1C [13-207]
18 | logP (acid) 2.59 | Cc1nc(Cn2c(C(F)(F)F)nc(Cl)c2Cl)ccc1NC(=O)c1cccc(Cl)c1C(=O)N[C@@H](C)CS(C)(=O)=O [13-364]
19 | logP (acid) 3.29 | CSC[C@H](C)NC(=O)c1c(Cl)cccc1C(=O)Nc1ccc(Cc2cc(C(F)(F)C(F)(F)F)n[nH]2)cc1C [13-230]
20 | logP (acid) 1.60 | Cc1nc(Cn2nc(C(F)(F)F)n(C)c2=O)ccc1NC(=O)c1cccc(Cl)c1C(=O)N[C@@H](C)CS(C)(=O)=O [14-322]
21 | logP (acid) 4.19 | CSC[C@H](C)NC(=O)c1c(Cl)cccc1C(=O)Nc1ccc(N(C)c2c(C(F)(F)F)c(C(F)(F)C(F)(F)F)nn2C)nc1C [13-353]
22 | logP (acid) 3.13 | Cc1cc(Cn2nc(C(F)(F)C(F)(F)F)nc2C(F)(F)F)ccc1NC(=O)c1cccc(S(=O)(=O)N(C)C)c1C(=O)N[C@@H](C)CS(C)(=O)=O [14-395]
23 | logP (acid) 3.56 | CC(=O)CC(C)NC(=O)c1c(Cl)cccc1C(=O)Nc1ccc(Cn2nc(C(F)(F)C(F)(F)F)nc2C(F)(F)F)cc1C (stereo not shown) [14-295]
24 | logP (acid) 2.5 | Cc1cc(Cn2nc(C(F)(F)C(F)(F)F)n(C(F)F)c2=O)ccc1NC(=O)c1cccc(Cl)c1C(=O)N[C@@H](C)C[S+](C)[O-] (stereo partly shown) [14-329]
25 | logP (acid) 2.76 | CSCC(C)NC(=O)c1c(Cl)cccc1C(=O)Nc1ccc(C(O)c2cc(C(F)(F)C(F)(F)F)n[nH]2)cc1C (mixture of isomers) [13-231]
26 | logP (acid) 3.16 | CSC[C@H](C)NC(=O)c1c(Cl)cccc1C(=O)Nc1ccc(Cn2cnc(C(F)(F)C(F)(F)C(F)(F)F)n2)nc1C [14-310]
27 | logP (acid) 3.43 | CSCC(C)NC(=O)c1c(Cl)cccc1C(=O)Nc1ccc(Cn2cc(C3=NOC(c4cc(Cl)cc(Cl)c4)(C(F)(F)F)C3)c(C(F)(F)F)n2)cc1C (mixture of isomers) [13-201]

Row | Compound | logP (acid)
28 | CSC[C@H](C)NC(=O)c1c(SC)cccc1C(=O)Nc1ccc(Cn2nc(C(F)(F)C(F)(F)F)c(C(F)(F)F)c2F)cc1C [13-308] | logP (acid) 4.43
29 | Cc1nc(Cn2c(C(F)(F)F)nc(Cl)c2Cl)ccc1NC(=O)c1cccc(Cl)c1C(=O)N[C@@H](C)C[S+](C)[O-] (stereo partly shown) [13-363] | logP (acid) 2.17
30 | Cc1cc(Cn2nc(C(F)(F)F)cc2C(F)(F)F)ccc1NC(=O)c1cccc(S(=O)(=O)N(C)C)c1C(=O)N[C@@H](C)CS(C)(=O)=O [13-349] | logP (acid) 3.07

Same assay, conditions: reverse phase (C18) chromatography, pH2.3, 0.1% phosphoric acid / acetonitrile gradient 10-95%

Row | logP (acid) | Compound
31 | logP (acid) 4.13 | CSC[C@H](C)NC(=O)c1c(Cl)cccc1C(=O)Nc1cc(F)c(C)cc1Cn1nc(C(F)(F)F)nc1C(F)(F)F [3-8]

System: not given
Assay: not given
Conditions: not given

Row | melting point [°C] | Compound
32 | 170 to 172 | Cc1cc(Cn2nc(C(F)(F)F)cc2C(F)(F)F)ccc1NC(=O)c1ccccc1C(=O)NC(C)C
33 | 179 to 184 | Cc1cc(Cn2nc(C(F)(F)F)cc2C(F)(F)F)ccc1NC(=O)c1cccc(Cl)c1C(=O)NC(C)(C)C(=O)O
34 | 176 to 178 | CC(C)NC(=O)c1ccccc1C(=O)Nc1ccc(Cn2nc(C(F)(F)F)cc2C(F)(F)F)cc1
35 | 187 to 188 | CCC(C)NC(=O)c1c(Cl)cccc1C(=O)Nc1ccc(Cn2nc(C(F)(F)F)cc2C(F)(F)F)cc1C (stereo not shown)
36 | 168 to 170 | CSC[C@H](C)NC(=O)c1c(Cl)cccc1C(=O)Nc1ccc(Cn2c(C)nnc2C(F)(F)F)cc1C
37 | 203 to 206 | Cc1cc(Cn2nc(C(F)(F)C(F)(F)F)nc2C(F)(F)F)ccc1NC(=O)c1cccc(Cl)c1C(=O)NC(C)(C)C=NO
38 | 201 | Cc1cc(Cn2nc(C(F)(F)C(F)(F)F)nc2C(F)(F)F)ccc1NC(=O)c1cccc(-c2cc(C(F)(F)F)cc(C(F)(F)F)c2)c1C(=O)N[C@@H](C)CS(C)(=O)=O
39 | 105 to 107 | CCN(CC)C(=O)c1c(Cl)cccc1C(=O)Nc1ccc(Cn2nc(C(F)(F)F)cc2C(F)(F)F)cc1C
40 | 211 to 212 | CCC(C)NC(=O)c1cccc(Cl)c1C(=O)Nc1ccc(Cn2nc(C(F)(F)F)cc2C(F)(F)F)cc1C (stereo not shown)
41 | 105 to 110 | Cc1cc(Cn2nc(C(F)(F)C(F)(F)F)nc2C(F)(F)F)ccc1NC(=O)c1cccc(Cl)c1C(=O)NC(C)(C)CO

System: Spodoptera litura third instar larvae
Assay: Test to larva of Spodoptera litura (sweet potato leaf dip)
Type: in vivo
Conditions: foliar, 168 h; Spodoptera litura third instar larvae, active ingredient concentration 20 ppm, seven days later, 25° C.; read-out: insect mortality
Procedure: Test to Larva of Spodoptera litura
Solvent: dimethylformamide 3 parts by weight Emulsifier: polyoxyethylene alkyl phenyl ether 1 part by weight
In order to prepare preparations of suitable active compounds, 1 part by weight of each of the active compounds was blended with the above amount of the solvent containing the above amount of the emulsifier, and the resulting mixture was diluted to a prescribed concentration with water.
Leaves of sweet potato were immersed in the tested liquid medication of a prescribed concentration diluted with water. After air drying of the liquid medication, the leaves were put into a petri dish of a diameter of 9 cm, and 10 Spodoptera litura third instar larvae were released in the petri dish, and the petri dish was placed in a constant temperature room of 25° C. Two days later and four days later, leaves of sweet potato were added. Seven days later, the number of dead insects was examined, and insect mortality was calculated.
In the present test, results of 2 petri dishes for each compound were averaged.

Row | Compound | mortality at 20 ppm [%]
42 | COC(=O)CNC(=O)C(C)(C)NC(=O)c1c(Cl)cccc1C(=O)Nc1ccc(Cn2nc(C(F)(F)F)cc2C(F)(F)F)cc1C [13-121, methyl N-{2-[(4-{[3,5-bis(trifluoromethyl)-1H-pyrazol-1-yl]methyl}-2-methylphenyl)carbamoyl]-6-chlorobenzoyl)-2-methylalanyl glycinate] | 100
43 | CSC[C@H](C)NC(=O)c1c(Cl)cccc1C(=O)Nc1ccc(CN2N=C(C(F)(F)C(F)(F)F)N(C(C)=O)C2C(F)(F)F)cc1C (stereo partly drawn) [16-6, N^1-(4-{[4-acetyl-3-(pentafluoroethyl)-5-(trifluoromethyl)-4,5-dihydro-1H-1,2,4-triazol-1-yl]methyl}-2-methylphenyl)-3-chloro-N^2-[(2S)-1-(methylsulfanyl)propan-2-yl]-1,2-benzenedicarboxamide] | 100
44 | Cc1cc(Cn2nc(C(F)(F)C(F)(F)F)nc2C(F)(F)F)ccc1NC(=O)c1cccc(Cl)c1C(=O)NC(C)(C)C=O [14-130, 3-chloro-N^2-(1,1-dimethyl-2-oxoethyl)-N^1-(2-methyl-4-{[3-(pentafluoroethyl)-5-(trifluoromethyl)-1H-1,2,4-triazol-1-yl]methyl}phenyl)-1,2-benzenedicarboxamide] | 100
45 | Cc1cc(Cn2cc(C(F)(F)C(F)(F)F)c(C(F)(F)C(F)(F)F)n2)ccc1NC(=O)c1cccc(Br)c1C(=O)N[C@@H](C)CS(C)(=O)=O [13-140, N^1-(4-{[3,4-bis(pentafluoroethyl)-1H-pyrazol-1-yl]methyl}-2-methylphenyl)-3-bromo-N^2-[(1S)-1-methyl-2-(methylsulfonyl)ethyl]-1,2-benzenedicarboxamide] | 100
46 | CON=C(c1cn(Cc2ccc(NC(=O)c3cccc(I)c3C(=O)N[C@@H](C)CSC)c(C)c2)nc1C(F)(F)F)C(F)(F)F [13-147, 3-iodo-N^2-[(1S)-1-methyl-2-(methylthio)ethyl]-N^1-[2-methyl-4-({4-[2,2,2-trifluoro-N-methoxyethanimidoyl]-3-(trifluoromethyl)-1H-pyrazol-1-yl}methyl)phenyl]-1,2-benzenedicarboxamide] | 100
